This note sets out measurements from BindingDB's records for doi:10.1016/j.bmcl.2019.04.027 (Gilead Sciences, 2019).

As a reminder, the EC50 is the concentration that produces a half-maximal response.

A short description of assay [1]: Inhibition of NS5A in HCV genotype 1a H77 infected in human HuH7 replicon cells assessed as reduction in viral replication after 3 days by luciferase reporter gene assay. A general note: In antiviral work, replicon cells carry a viral genome segment that copies itself.
The nature of assay [2]: Inhibition of NS5A in HCV genotype 1b Con1 infected in human HuH7 replicon cells assessed as reduction in viral replication after 3 days by luciferase reporter gene assay.
Assay [3] in a line: Inhibition of NS5A in HCV genotype 2a JFH1 (L31) infected in human HuH7 replicon cells assessed as reduction in viral replication after 3 days by luciferase reporter gene assay.
Assay [4] can be described thus: Inhibition of NS5A L31M mutant in HCV genotype 2a J6 (M31) infected in human HuH7 replicon cells assessed as reduction in viral replication after 3 days by luciferase reporter gene assay.
The nature of assay [5]: Inhibition of NS5A L31M mutant in patient derived HCV genotype 2b MD2b-1 infected in human HuH7 replicon cells assessed as reduction in viral replication after 3 days by luciferase reporter gene assay.
Assay [6] in a line: Inhibition of NS5A in HCV genotype 3a S52 infected in human HuH7 transient chimeric replicon cells assessed as reduction in viral replication after 3 days by luciferase reporter gene assay.
Assay [7] is described as follows: Inhibition of NS5A in HCV genotype 4a ED43 infected in human HuH7 transient chimeric replicon cells assessed as reduction in viral replication after 3 days by luciferase reporter gene assay.
Assay [8] can be described thus: Inhibition of NS5A in HCV genotype 2a JFH1 infected in human HuH7 replicon cells assessed as reduction in viral replication after 3 days by luciferase reporter gene assay.
The nature of assay [9]: Inhibition of NS5A in HCV genotype 2b MD2b-1 infected in human HuH7 replicon cells assessed as reduction in viral replication after 3 days by luciferase reporter gene assay.

In the case of `COC(=O)N[C@H](C(=O)N1CCC[C@H]1c1ncc(-c2cc3c4c(c2)COc2cc(-c5cnc([C@@H]6CCCN6C(=O)[C@@H](NC(=O)OC)C(C)C)[nH]5)cc(c2-4)CC3)[nH]1)C(C)C`, the EC50 in assay [1] was 65 pM; in [2], 28 pM; in assay [3] it was 16 pM; in [4], 23700 pM.

For `COC(=O)NC(C(=O)N1CCC[C@H]1c1ncc(-c2cc3c4c(c2)OCc2cc(-c5cnc([C@@H]6CCCN6C(=O)[C@@H](NC(=O)OC)C(C)C)[nH]5)cc(c2-4)OC3)[nH]1)c1cccnc1` (stereo partly drawn), the EC50 is 750 pM in [1]; 580 pM in assay [2]; 38 pM in assay [3]; 1800 pM in [4]; 1210 pM in assay [5].

Turning to `COC(=O)N[C@H](C(=O)N1CCC[C@H]1c1ncc(-c2cc3c4c(c2)OCc2cc(-c5cnc([C@@H]6CCCN6C(=O)[C@@H](NC(=O)OC)C6CCOCC6)[nH]5)cc(c2-4)OC3)[nH]1)C1CCOCC1`, the EC50 in assay [1] came out at 380 pM; in assay [2] it was 800 pM; in assay [3], 74 pM; in [4] it was 330 pM; in assay [5] it was 600 pM.

`COC(=O)N[C@H](C(=O)N1CCC[C@H]1c1ncc(-c2ccc3c(c2)COc2c-3ccc3c2ccc2nc([C@@H]4CCCN4C(=O)[C@@H](NC(=O)OC)C(C)C)[nH]c23)[nH]1)C(C)C`: the half-maximal effective concentration (EC50) was 41 pM in assay [1]; 17 pM in assay [2]; 16 pM in assay [3]; 20900 pM in assay [4]; 12 pM in assay [6]; 130 pM in [7]. In addition, in assay [5], the EC50 was determined as 32300 pM.

For `COC(=O)N[C@H](C(=O)N1CCC[C@H]1c1ncc(-c2cc3ccc4cc(-c5cnc([C@@H]6CCCN6C(=O)[C@@H](NC(=O)OC)C(C)C)[nH]5)cc5c(=O)c(c2)c3c45)[nH]1)C(C)C`, the values for the EC50 in [1], in assay [2] and in [3] were 220 pM, 13 pM and 73 pM, respectively.

For `COC(=O)N[C@H](C(=O)N1[C@@H](C)CC[C@H]1c1nc2ccc3cc4c(cc3c2[nH]1)OCc1cc(-c2cnc([C@@H]3C[C@H](C)CN3C(=O)[C@H](NC(=O)OC)c3ccccc3)[nH]2)ccc1-4)C(C)C`, the EC50 in [1] is 8 pM; in [2], 5 pM; in assay [8], 4 pM; in [9] it was 15 pM; in assay [4], 53 pM; in assay [6] it was 20 pM.

As to `COC(=O)N[C@H](C(=O)N1CCC[C@H]1c1ncc(-c2ccc3c(c2)COc2cc4c(ccc5nc([C@@H]6CCCN6C(=O)[C@@H](NC(=O)OC)C(C)C)[nH]c54)cc2-3)[nH]1)C(C)C`, the EC50 in [1] came out at 16 pM; in [2], 17 pM; in [3] it was 4 pM; in assay [4], 1160 pM; in assay [6], 4 pM; in [7] it was 8 pM. For the same compound, the EC50 in assay [5] stood at 162 pM.

As for `COC(=O)N[C@H](C(=O)N1CCC[C@H]1c1ncc(-c2ccc3c4ccc(-c5cnc([C@@H]6CCCN6C(=O)[C@@H](NC(=O)OC)C(C)C)[nH]5)cc4c4nc5ccccc5nc4c3c2)[nH]1)C(C)C`, the EC50 was 5990 pM in assay [1], 10 pM in assay [2] and 1470 pM in assay [3].

Consider `COC(=O)N[C@H](C(=O)N1CCC[C@H]1c1ncc(-c2cc3c4c(ccc5cc(-c6cnc([C@@H]7CCCN7C(=O)[C@@H](NC(=O)OC)C(C)C)[nH]6)cc(c54)OC3)c2)[nH]1)C(C)C`, for which the EC50 in assay [1] worked out at 63 pM; in [2] it was 22 pM; in [3], 14 pM; in assay [4], 19700 pM; in [5], 10200 pM.

For the compound `COC(=O)N[C@H](C(=O)N1CCC[C@H]1c1ncc(-c2ccc3c4ccc(-c5cnc([C@@H]6CCCN6C(=O)[C@@H](NC(=O)OC)C(C)C)[nH]5)cc4c4nccnc4c3c2)[nH]1)C(C)C`, the EC50 was 528 pM in assay [1], 18 pM in [2] and 223 pM in assay [3].
